# Measurements taken from ChEMBL document CHEMBL3286222, “Synthesis and antiproliferative studies of 5-aryl-2-(3-thienylamino)-1,3,4-thiadiazoles” (Bioorg Med Chem Lett, 2014).
# Tests used:
# [1] = Cytotoxicity against mouse B16F10 cells assessed as growth inhibition after 72 hrs by MTT colorimetric assay; format: functional, cell-based; details: B16-F10, 72 h
# [2] = Cytotoxicity against human U373 cells assessed as growth inhibition after 72 hrs by MTT colorimetric assay; format: functional, cell-based, U-373MG ATCC; details: U373 MG
# A549 [3] = assay: Cytotoxicity against human A549 cells assessed as cell viability at 50 uM after 72 hrs by MTT colorimetric assay; format: functional; details: A549, 72 h, read-out: Activity
# MCF7 [4] = assay: Cytotoxicity against human MCF7 cells assessed as growth inhibition after 72 hrs by MTT colorimetric assay; format: functional, cell-based; details: MCF7, 72 h
# SK-MEL-28 [5] = assay: Cytotoxicity against human SK-MEL-28 cells assessed as growth inhibition after 72 hrs by MTT colorimetric assay; format: functional, cell-based; details: SK-MEL-28, 72 h
# [6] = Cytotoxicity against human Hs683 cells assessed as cell viability at 5 uM after 72 hrs by MTT colorimetric assay; format: functional; details: Hs 683, 72 h, read-out: Activity
# [7] = Cytotoxicity against human Hs683 cells assessed as growth inhibition after 72 hrs by MTT colorimetric assay; format: functional, cell-based; details: Hs 683, 72 h
# A549 [8] = assay: Cytotoxicity against human A549 cells assessed as growth inhibition after 72 hrs by MTT colorimetric assay; format: functional, cell-based; details: A549, 72 h
# MCF7 [9] = assay: Cytotoxicity against human MCF7 cells assessed as cell viability at 100 uM after 72 hrs by MTT colorimetric assay; format: functional; details: MCF7, 72 h, read-out: Activity
# A549 [10] = assay: Cytotoxicity against human A549 cells assessed as cell viability at 100 uM after 72 hrs by MTT colorimetric assay; format: functional; details: A549, 72 h, read-out: Activity
# [11] = Cytotoxicity against mouse B16F10 cells assessed as cell viability at 50 uM after 72 hrs by MTT colorimetric assay; format: functional; details: B16-F10, 72 h, read-out: Activity
# [12] = Cytotoxicity against human Hs683 cells assessed as cell viability at 50 uM after 72 hrs by MTT colorimetric assay; format: functional; details: Hs 683, 72 h, read-out: Activity
# [13] = Cytotoxicity against human Hs683 cells assessed as cell viability at 100 uM after 72 hrs by MTT colorimetric assay; format: functional; details: Hs 683, 72 h, read-out: Activity
# [14] = Cytotoxicity against mouse B16F10 cells assessed as cell viability at 0.5 uM after 72 hrs by MTT colorimetric assay; format: functional; details: B16-F10, 72 h, read-out: Activity
# MCF7 [15] = assay: Cytotoxicity against human MCF7 cells assessed as cell viability at 50 uM after 72 hrs by MTT colorimetric assay; format: functional; details: MCF7, 72 h, read-out: Activity
# [16] = Cytotoxicity against mouse B16F10 cells assessed as cell viability at 5 uM after 72 hrs by MTT colorimetric assay; format: functional; details: B16-F10, 72 h, read-out: Activity
# A549 [17] = assay: Cytotoxicity against human A549 cells assessed as cell viability at 0.5 uM after 72 hrs by MTT colorimetric assay; format: functional; details: A549, 72 h, read-out: Activity
# [18] = Cytotoxicity against human U373 cells assessed as cell viability at 10 uM after 72 hrs by MTT colorimetric assay; format: functional, U-373MG ATCC; details: U373 MG, read-out: Activity
# A549 [19] = assay: Cytotoxicity against human A549 cells assessed as cell viability at 10 uM after 72 hrs by MTT colorimetric assay; format: functional; details: A549, 72 h, read-out: Activity
# MCF7 [20] = assay: Cytotoxicity against human MCF7 cells assessed as cell viability at 5 uM after 72 hrs by MTT colorimetric assay; format: functional; details: MCF7, 72 h, read-out: Activity
# [21] = Cytotoxicity against mouse B16F10 cells assessed as cell viability at 1 uM after 72 hrs by MTT colorimetric assay; format: functional; details: B16-F10, 72 h, read-out: Activity
# [22] = Cytotoxicity against human U373 cells assessed as cell viability at 0.5 uM after 72 hrs by MTT colorimetric assay; format: functional, U-373MG ATCC; details: U373 MG, read-out: Activity
# [23] = Cytotoxicity against human Hs683 cells assessed as cell viability at 0.5 uM after 72 hrs by MTT colorimetric assay; format: functional; details: Hs 683, 72 h, read-out: Activity
# MCF7 [24] = assay: Cytotoxicity against human MCF7 cells assessed as cell viability at 0.5 uM after 72 hrs by MTT colorimetric assay; format: functional; details: MCF7, 72 h, read-out: Activity
# SK-MEL-28 [25] = assay: Cytotoxicity against human SK-MEL-28 cells assessed as cell viability at 100 uM after 72 hrs by MTT colorimetric assay; format: functional; details: SK-MEL-28, 72 h, read-out: Activity
# [26] = Cytotoxicity against human Hs683 cells assessed as cell viability at 1 uM after 72 hrs by MTT colorimetric assay; format: functional; details: Hs 683, 72 h, read-out: Activity
# [27] = Cytotoxicity against human Hs683 cells assessed as cell viability at 10 uM after 72 hrs by MTT colorimetric assay; format: functional; details: Hs 683, 72 h, read-out: Activity
# A549 [28] = assay: Cytotoxicity against human A549 cells assessed as cell viability at 5 uM after 72 hrs by MTT colorimetric assay; format: functional; details: A549, 72 h, read-out: Activity
# NHDF = assay: Cytotoxicity against human NHDF cells assessed as growth inhibition after 72 hrs by MTT colorimetric assay; format: cell-based
# [29] = Cytotoxicity against human NHLF cells assessed as growth inhibition after 72 hrs by MTT colorimetric assay; format: cell-based
# [30] = Cytotoxicity against human Hs683 cells assessed as cell viability at 0.05 uM after 72 hrs by MTT colorimetric assay; format: functional; details: Hs 683, 72 h, read-out: Activity
# SK-MEL-28 [31] = assay: Cytotoxicity against human SK-MEL-28 cells assessed as cell viability at 0.5 uM after 72 hrs by MTT colorimetric assay; format: functional; details: SK-MEL-28, 72 h, read-out: Activity
SMILES,IC50 [1],IC50 [2],IC50 (MCF7 [4]),IC50 (SK-MEL-28 [5]),IC50 [7],IC50 (A549 [8]),further results
Cc1ccc(-c2nnc(Nc3csc(-c4ccccc4)c3)s2)cc1,4 µM,> 100 µM,34 µM,> 100 µM,,,viability at 50 µM (A549 [3]): < 50%; viability at 5 µM [6]: < 50%
COc1ccc(C(=O)NNC(=S)Nc2csc(-c3ccccc3)c2)cc1,33 µM,41 µM,32 µM,30 µM,35 µM,36 µM,
Cc1ccc(C(=O)NNC(=S)Nc2csc(-c3ccccc3)c2)cc1,24 µM,62 µM,30 µM,40 µM,37 µM,40 µM,
COc1cc(OC)cc(-c2nnc(Nc3csc(-c4ccccc4)c3)s2)c1,,92 µM,,> 100 µM,,,viability at 100 µM (MCF7 [9]): < 50%; viability at 100 µM (A549 [10]): < 50%; viability at 50 µM [11]: < 50%; viability at 50 µM [12]: < 50%
COc1cc(OC)cc(C(=O)NNC(=S)Nc2csc(-c3ccccc3)c2)c1,30 µM,40 µM,38 µM,37 µM,42 µM,39 µM,
COc1ccc(-c2nnc(Nc3csc(-c4ccccc4)c3)s2)cc1OC,,> 100 µM,92 µM,> 100 µM,,> 100 µM,viability at 100 µM [13]: < 50%; viability at 0.5 µM [14]: < 50%
COc1cc(-c2nnc(Nc3csc(-c4ccccc4)c3)s2)cc(OC)c1OC,,> 100 µM,> 100 µM,> 100 µM,,,viability at 100 µM (A549 [10]): < 50%; viability at 0.5 µM [14]: < 50%; viability at 5 µM [6]: < 50%
COc1cc(OC)cc(C(=O)NNC(=S)Nc2csc(-c3ccc(C)cc3)c2)c1,13 µM,41 µM,26 µM,38 µM,37 µM,32 µM,
Cc1ccc(-c2cc(NC(=S)NNC(=O)c3ccc(O)cc3)cs2)cc1,48 µM,64 µM,42 µM,46 µM,49 µM,44 µM,
COc1ccc(-c2nnc(Nc3csc(-c4ccc(C)cc4)c3)s2)cc1OC,,> 100 µM,,> 100 µM,,,viability at 50 µM (MCF7 [15]): < 50%; viability at 5 µM [16]: < 50%; viability at 5 µM [6]: < 50%; viability at 0.5 µM (A549 [17]): < 50%
COc1cc(C(=O)NNC(=S)Nc2csc(-c3ccc(C)cc3)c2)cc(OC)c1OC,13 µM,47 µM,31 µM,42 µM,42 µM,39 µM,
Oc1ccc(-c2nnc(Nc3csc(-c4ccccc4)c3)s2)cc1,8 µM,58 µM,24 µM,57 µM,26 µM,15 µM,
COc1ccc(-c2nnc(Nc3csc(-c4ccccc4)c3)s2)cc1,6 µM,92 µM,60 µM,> 100 µM,5 µM,8 µM,
COc1cc(OC)cc(-c2nnc(Nc3csc(-c4ccc(C)cc4)c3)s2)c1,,,,> 100 µM,,,viability at 10 µM [18]: < 50%; viability at 10 µM (A549 [19]): < 50%; viability at 5 µM [6]: < 50%; viability at 5 µM (MCF7 [20]): < 50%; viability at 1 µM [21]: < 50%
COc1ccc(-c2nnc(Nc3csc(-c4ccc(C)cc4)c3)s2)cc1,,,,,,,viability at 0.5 µM [22]: < 50%; viability at 0.5 µM [23]: < 50%; viability at 0.5 µM (MCF7 [24]): < 50%; viability at 100 µM (SK-MEL-28 [25]): < 50%; viability at 0.5 µM (A549 [17]): < 50%; viability at 1 µM [21]: < 50%
Cc1ccc(C(=O)NNC(=S)Nc2csc(-c3ccc(C)cc3)c2)cc1,20 µM,38 µM,29 µM,44 µM,40 µM,37 µM,
COc1ccc(C(=O)NNC(=S)Nc2csc(-c3ccc(C)cc3)c2)cc1OC,7 µM,47 µM,11 µM,19 µM,39 µM,36 µM,
Cc1ccc(-c2cc(Nc3nnc(-c4ccc(C)cc4)s3)cs2)cc1,,,,> 100 µM,,,viability at 100 µM (MCF7 [9]): < 50%; viability at 1 µM [26]: < 50%; viability at 0.5 µM [22]: < 50%; viability at 0.5 µM (A549 [17]): < 50%; viability at 1 µM [21]: < 50%
COc1ccc(C(=O)NNC(=S)Nc2csc(-c3ccccc3)c2)cc1OC,9 µM,59 µM,21 µM,28 µM,22 µM,20 µM,
COc1ccc(-c2cc(Nc3nnc(-c4ccc(C)cc4)s3)cs2)cc1,,> 100 µM,> 100 µM,> 100 µM,,,viability at 10 µM [27]: < 50%; viability at 5 µM (A549 [28]): < 50%; viability at 1 µM [21]: < 50%
COc1cc(C(=O)NNC(=S)Nc2csc(-c3ccccc3)c2)cc(OC)c1OC,32 µM,44 µM,43 µM,55 µM,42 µM,39 µM,
COc1ccc(C(=O)NNC(=S)Nc2csc(-c3ccc(C)cc3)c2)cc1,9 µM,19 µM,5 µM,11 µM,12 µM,11 µM,IC50 (NHDF): 22 µM; IC50 [29]: 28 µM
COc1cc(-c2nnc(Nc3csc(-c4ccc(C)cc4)c3)s2)cc(OC)c1OC,12 µM,,,,,,viability at 0.05 µM [30]: < 50%; viability at 0.5 µM (SK-MEL-28 [31]): < 50%; viability at 0.5 µM [22]: < 50%; viability at 0.5 µM (MCF7 [24]): < 50%; viability at 0.5 µM (A549 [17]): < 50%
COc1ccc(-c2cc(NC(=S)NNC(=O)c3ccc(C)cc3)cs2)cc1,7 µM,> 100 µM,40 µM,22 µM,30 µM,35 µM,
O=C(NNC(=S)Nc1csc(-c2ccccc2)c1)c1ccc(O)cc1,40 µM,> 100 µM,78 µM,71 µM,80 µM,75 µM,
Cc1ccc(-c2cc(Nc3nnc(-c4ccc(O)cc4)s3)cs2)cc1,6 µM,8 µM,8 µM,14 µM,17 µM,6 µM,
